Source: US12448400B2, “KRAS G12D modulating compounds” (priority 2023, dated 2025)
Where two headings read alike, the source gives them in different places.

What was measured:
[1] = test system: GP2D (KRAS G12D) cells; test: 2D cell viability assay (CellTiter-Glo); format: cell-based
Description: Example B. 2D Cell Viability Assay
Compounds were tested in a 384-well format for their ability to inhibit the viability of GP2D (KRAS G12D) cells in 2D assays. Compounds were serially diluted (1:3) in DMSO. The LabCyte ECHO Acoustic dispenser system was used to pre-spot assay plates with 200 nL of test molecule per well. 1000 cells/well (40 μL volume per well) in RPMI medium with 10% FBS, and Penicillin-Streptomycin-Glutamine were plated in pre-spotted 384-well plates (Greiner, Catalog #781076) on the BioTEK EL406 liquid dispenser with a 5 μL dispensing cassette (BioTek 7170011). The plates were incubated at 37° C., 5% CO2 for 4 days before addition of CellTiter-Glo (CTG) reagent and measurement of luminescence signal. EC50 values were defined as the compound concentration that causes a 50% decrease in luminescence signal and were calculated using a sigmoidal dose-response model to generate curve fits.

[2] = Mouse oral cassette pharmacokinetics; format: in vivo, male CD-1 mice
Description: Mouse Oral Cassette Pharmacokinetics
Test compounds (1-3 compounds per cassette) were formulated in solution formulations (10 w/v % Captisol in 50 mM Citrate buffer) and administered orally at 30 mg-eq./kg each compound to a group of four male CD-1 mice. The test articles were administrated by oral gavage at a dose volume of 10 mL-eq/kg.
Blood samples were collected at 0.5, 1, 3, 6, 8, and 24 hours post dose into K2EDTA tubes and stored on wet ice until processed. Whole blood was processed to plasma by centrifugation (3500 rpm for 10 minutes at 5° C.) within 30 minutes of collection. Plasma samples were placed in Micronic 96 well tubes and stored at −80° C. until transferred. Plasma concentration of the test compounds was determined by LC-MS/MS. Pharmacokinetic parameters were estimated using non-compartment model analysis. The maximum observed concentration (Cmax) and area under the curve from time of dosing to last measured concentration (AUClast) were calculated and reported.

[3] = biological target: GDP-loaded KRAS G12D (Homo sapiens, UniProt P01116, G12D); test: KRAS G12D (GDP) biochemical assay, TR-FRET probe displacement; format: binding
Description: Example A. KRAS G12D (GDP) Biochemical Assay
Compounds were tested for binding to GDP-loaded KRAS G12D in a 384-well assay format using a TR-FRET probe displacement assay in buffer consisting of 50 mM Hepes (pH 7.4), 150 mM NaCl, 5 mM MgCl2 and 0.005% Tween-20. […] Compounds were serially diluted (1:3) in DMSO. The LabCyte ECHO Acoustic dispenser system was used to pre-spot the assay plates (384-well Non-Binding Surface plates, Corning, Catalog #3824) with 50 nL of compound. The compounds were pre-incubated with 5 μL of 2× final enzyme concentration for 30 minutes before adding 5 μL of 2× final concentration of Eu-streptavidin and TR-FRET probe (10 μL final reaction volume). The plates were incubated at room temperature for 2 hours before measuring TR-FRET ratio on the Envision plate reader. IC50 values were defined as the compound concentration that causes a 50% decrease in TR-FRET ratio and were calculated using a sigmoidal dose-response model to generate curve fits.

[4] = GP2D cells, 4 days, CellTiter-Glo luminescence, read-out: G12D 2D EC50
[5] = oral gavage, 30 mg-eq./kg each compound, cassette, plasma, AUClast of parent
[6] = male, CD-1, mouse, in vivo, po, 30 mg/kg
[7] = 96 h, GP2D cells, 4 days, CellTiter-Glo luminescence, read-out: G12D 2D EC50
[8] = 0.5 nM enzyme, 30 min pre-incubation, 2 h incubation, TR-FRET ratio, read-out: G12D IC50

GDP-loaded KRAS G12D, sequence (P01116 1-188 isoform P01116-2 G12D): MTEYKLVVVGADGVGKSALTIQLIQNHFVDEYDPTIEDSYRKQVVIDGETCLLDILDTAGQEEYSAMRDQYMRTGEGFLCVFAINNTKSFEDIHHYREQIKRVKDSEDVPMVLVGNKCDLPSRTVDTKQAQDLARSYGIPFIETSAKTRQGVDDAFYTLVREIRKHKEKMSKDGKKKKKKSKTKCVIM

| Molecule | EC50 [1, 7] [nM] | IC50 [3, 8] [pM] | other results |
| --- | --- | --- | --- |
| 5-ethynyl-6-fluoro-4-((7R,8S,8aS,9S,12R)-4-fluoro-2-(((2R,7aS)-2-fluorotetrahydro-1H-pyrrolizin-7a(5H)-yl)methoxy)-7,8-dimethyl-14-((5-methyl-2-oxo-1,3-dioxol-4-yl)methyl)-7,8,8a,9,10,11,12,13-octahydro-1,3,6,13a,14-pentaaza-9,12-methanonaphtho[1,8-ab]heptalen-5-yl)naphthalen-2-yl isobutyrate [Example 31] |  |  | EC50 [1, 4]: 0.2 nM; Mouse Parent AUC [2, 5]: 0.99 µM·h |
| C#Cc1c(F)ccc2cc(O)cc(-c3nc4c5c(nc(OC[C@@]67CCCN6C[C@H](F)C7)nc5c3F)N3C[C@H]5CC[C@H](N5)[C@@H]3[C@@H](C)C4)c12 [Comp. Ex. 64, 5-ethynyl-6-fluoro-4-((5S,5aS,6S,9R)-1-fluoro-12-(((2R,7aS)-2-fluorotetrahydro-1H-pyrrolizin-7a(5H)-yl)methoxy)-5-methyl-4,5,5a,6,7,8,9,10-octahydro-3,10a,11,13,14-pentaaza-6,9-methanonaphtho[1,8-ab]heptalen-2-yl)naphthalen-2-ol, reference compound] |  |  | Mouse Parent AUC [2, 6]: 0.83 µM·h |
| C#Cc1c(F)ccc2cc(O)cc(-c3nc4c5c(nc(OC[C@@]67CCCN6C[C@H](F)C7)nc5c3F)N3C[C@H]5CC[C@H](N5)[C@@H]3[C@@H](C)[C@H]4C)c12 [Comp. Ex. 87, reference compound] |  |  | Mouse Parent AUC [2, 6]: 0.9 µM·h |
| C#Cc1c(F)ccc2cccc(-c3nc4c5c(nc(OC[C@@]67CCCN6C[C@H](F)C7)nc5c3F)N3C[C@H]5CC[C@@H]([C@H]3CCC4)N5Cc3oc(=O)oc3C(C)(C)C)c12 [Example 6, 4-(tert-butyl)-5-(((6aR,7S,10R)-2-(8-ethynyl-7-fluoronaphthalen-1-yl)-1-fluoro-13-(((2R,7aS)-2-fluorotetrahydro-1H-pyrrolizin-7a(5H)-yl)methoxy)-5,6,6a,7,8,9,10,11-octahydro-4H-3,11a,12,14,15-pentaaza-7,10-methanocyclohepta[4,5]cycloocta[1,2,3-de]naphthalen-15-yl)methyl)-1,3-dioxol-2-one] | 26 | 31000 |  |
| C#Cc1c(F)ccc2cc(O)cc(-c3nc4c5c(nc(OC[C@@]67CCCN6C[C@H](F)C7)nc5c3F)N3C[C@H]5CC[C@@H]([C@@H]3[C@@H](C)C4)N5Cc3oc(=O)oc3C)c12 [Example 7, 4-(((5S,5aS,6S,9R)-2-(8-ethynyl-7-fluoro-3-hydroxynaphthalen-1-yl)-1-fluoro-12-(((2R,7aS)-2-fluorotetrahydro-1H-pyrrolizin-7a(5H)-yl)methoxy)-5-methyl-4,5,5a,6,7,8,9,10-octahydro-3,10a,11,13,14-pentaaza-6,9-methanonaphtho[1,8-ab]heptalen-14-yl)methyl)-5-methyl-1,3-dioxol-2-one] | 0.18 | 2800 |  |
| Oc1cc(-c2nc3c4c(nc(OC[C@@]56CCCN5C[C@H](F)C6)nc4c2F)N2C[C@H]4CC[C@H](N4)[C@H]2CCC3)c2c(OC(F)(F)F)c(F)ccc2c1 [Example 18-P, 6-fluoro-4-((6aR,7S,10R)-1-fluoro-13-(((2R,7aS)-2-fluorotetrahydro-1H-pyrrolizin-7a(5H)-yl)methoxy)-5,6,6a,7,8,9,10,11-octahydro-4H-3,11a,12,14,15-pentaaza-7,10-methanocyclohepta[4,5]cycloocta[1,2,3-de]naphthalen-2-yl)-5-(trifluoromethoxy)naphthalen-2-ol] | 0.24 | 60 |  |
| C#Cc1c(F)ccc2cc(O)cc(-c3c(F)c4c5c(nc(OCC67CCCN6CC(F)C7)nc5c3F)N3CC5CCC(C3CCC4)N5Cc3oc(=O)oc3C)c12 [Example 28, 4-(((1S,4R,11R,15aR)-11-(8-ethynyl-7-fluoro-3-hydroxynaphthalen-1-yl)-10,12-difluoro-8-(((2R,7aS)-2-fluorotetrahydro-1H-pyrrolizin-7a(5H)-yl)methoxy)-2,3,4,5,13,14,15,15a-octahydro-1H-1,4-epiminoazepino[1′,2′:1,8]azocino[2,3,4-de]quinazolin-16-yl)methyl)-5-methyl-1,3-dioxol-2-one] |  |  | EC50 [1, 4]: 0.18 nM; Mouse Parent AUC [2, 5]: 0.7 µM·h |
| C#Cc1c(F)ccc2cc(O)cc(-c3c(F)c4c5c(nc(OC[C@@]67CCCN6C[C@H](F)C7)nc5c3F)N3C[C@H]5CC[C@H](N5)[C@H]3CC4)c12 [Example 37-P, 4-((1S,4R,11R,14aR)-10,12-difluoro-8-(((2R,7aS)-2-fluorotetrahydro-1H-pyrrolizin-7a(5H)-yl)methoxy)-1,2,3,4,5,13,14,14a-octahydro-1,4-epiminoazepino[1′,2′:1,7]azepino[2,3,4-de]quinazolin-11-yl)-5-ethynyl-6-fluoronaphthalen-2-ol] | 0.26 | 70 |  |
| C#Cc1c(F)ccc2cc(O)cc(-c3nc4c5c(nc(OC[C@@]67CCCN6C[C@H](F)C7)nc5c3F)N3C[C@H]5CC[C@H](N5)[C@@H]3[C@H]3CCC[C@@H]43)c12 [Example 42-P, 5-ethynyl-6-fluoro-4-((3aS,3bS,4S,7R,14bR)-12-fluoro-10-(((2R,7aS)-2-fluorotetrahydro-1H-pyrrolizin-7a(5H)-yl)methoxy)-2,3,3a,3b,4,5,6,7,8,14b-decahydro-1H-8a,9,11,14,15-pentaaza-4,7-methanocyclopenta[d]naphtho[1,8-ab]heptalen-13-yl)naphthalen-2-ol] | 1.7 | 150 |  |
| C#Cc1c(F)ccc2cc(OC(=O)N(C)C)cc(-c3nc4c5c(nc(OC[C@@]67CCCN6C[C@H](F)C7)nc5c3F)N3C[C@H]5CC[C@@H]([C@@H]3[C@@H](C)C4)N5Cc3oc(=O)oc3C)c12 [Example 51, 5-ethynyl-6-fluoro-4-((5S,5aS,6S,9R)-1-fluoro-12-(((2R,7aS)-2-fluorotetrahydro-1H-pyrrolizin-7a(5H)-yl)methoxy)-5-methyl-14-((5-methyl-2-oxo-1,3-dioxol-4-yl)methyl)-4,5,5a,6,7,8,9,10-octahydro-3,10a,11,13,14-pentaaza-6,9-methanonaphtho[1,8-ab]heptalen-2-yl)naphthalen-2-yl dimethylcarbamate] |  |  | EC50 ([1]; GP2d, 96 h, read-out: G12D 2D EC50 (nM)): 34 nM; IC50 [3]: > 100000 pM |
| C#Cc1c(F)ccc2cc(O)cc(-c3nc4c5c(nc(OC[C@]6(C)CN(C)CC[C@@H]6C(F)F)nc5c3F)N3C[C@H]5CC[C@H](N5)[C@H]3CCC4)c12 [Example 74-P, 4-((6aR,7S,10R)-13-(((3S,4S)-4-(difluoromethyl)-1,3-dimethylpiperidin-3-yl)methoxy)-1-fluoro-5,6,6a,7,8,9,10,11-octahydro-4H-3,11a,12,14,15-pentaaza-7,10-methanocyclohepta[4,5]cycloocta[1,2,3-de]naphthalen-2-yl)-5-ethynyl-6-fluoronaphthalen-2-ol] | 0.15 | 30 |  |
| [2H]C([2H])([2H])N1CC[C@H](C(F)F)[C@](C)(C([2H])([2H])Oc2nc3c4c(nc(-c5cc(O)cc6ccc(F)c(C#C)c56)c(F)c4n2)CCC[C@@H]2[C@@H]4CC[C@H](CN32)N4)C1 [Example 75-P, 4-((6aR,7S,10R)-13-(((3S,4S)-4-(difluoromethyl)-3-methyl-1-(methyl-d3)piperidin-3-yl)methoxy-d2)-1-fluoro-5,6,6a,7,8,9,10,11-octahydro-4H-3,11a,12,14,15-pentaaza-7,10-methanocyclohepta[4,5]cycloocta[1,2,3-de]naphthalen-2-yl)-5-ethynyl-6-fluoronaphthalen-2-ol] | 0.1 | 30 |  |
| C#Cc1c(F)ccc2cc(N)cc(-c3nc4c5c(nc(OC[C@]6(C)CN(C)CC[C@@H]6C(F)F)nc5c3F)N3C[C@H]5CC[C@H](N5)[C@H]3CCC4)c12 [Example 76-P, 4-((6aR,7S,10R)-13-(((3S,4S)-4-(difluoromethyl)-1,3-dimethylpiperidin-3-yl)methoxy)-1-fluoro-5,6,6a,7,8,9,10,11-octahydro-4H-3,11a,12,14,15-pentaaza-7,10-methanocyclohepta[4,5]cycloocta[1,2,3-de]naphthalen-2-yl)-5-ethynyl-6-fluoronaphthalen-2-amine] | 0.27 | 70 |  |
